In US8287923B2, “Compositions and methods for treating immune disorders” (priority 2005, dated 2012):

System: normal human epidermal keratinocytes (NHEK)
Assay: Affymetrix gene array analysis, autoantigen gene expression
Type: cell-based
Settings: 100 μM
Procedure: The gene array experiment was performed at the Core Facility of Genomics of the Medical College of Georgia, according to the instructions of the manufacturer (Affymetrix, Santa Clara, Calif.). Briefly, NHEK and OSC2 cells treated with 100 μM EGCG for different time period were extracted for total RNA, the RNA was processed for probes and hybridized with a cDNA microarray (HuG133A, Affymetrix) which represents 22,283 human series. DNA chips were read with a Hewlett-Packard GeneArray Scanner at a resolution of […] and were analyzed with the GeneSpring software (Silicon Genetics, Redwood City, Calif.). Details of this analysis will be published elsewhere (Hsu et al., manuscript in preparation).
Gene assays provide a valuable tool for studying the broad response of cells to agents, and we have used this approach to compare the differential effects of GTPP on gene expression in NHEK and human oral squamous carcinoma cells (Hsu, et al, manuscript in preparation). […] See also Hsu, S. et al. (2005) JPET 315:805-811, which is incorporated by reference in its entirety.

RNA polymerase 1 (202692_s-at) expression, normalized (6 h): 0.50 | ADPRT [poly(ADP)-ribose polymerase] expression (6 h, vs time zero): 0.992 fold
Compound: O=C(O[C@@H]1Cc2c(O)cc(O)cc2O[C@@H]1c1cc(O)c(O)c(O)c1)c1cc(O)c(O)c(O)c1 [EGCG, (−)-epigallocatechin-3-gallate]
60 kDa, SS-A/Ro (212852_s_at) expression, normalized (6 h): 0.85 | Ku autoantigen, 80 kDa (208642_s_at) expression, normalized (6 h): 0.96 | Ku autoantigen, 80 kDa (208643_s_at) expression, normalized (6 h): 0.98 | Nuclear antigen SP100 (202863_at) expression, normalized (6 h): 0.59 | Nuclear antigen SP100 (202864_s_at) expression, normalized (6 h): 0.64 | Nuclear antigen SP10075 kDa (213226_at) expression, normalized (6 h): 0.43 | SS-B/La (201138_s_at) expression, normalized (6 h): 0.57 | SS-B/La (201139_s_at) expression, normalized (6 h): 0.43 | centromere protein C1 (20473_at) expression, normalized (6 h): 0.87 | coilin (203653_s_at) expression, normalized (6 h): 0.60 | coilin (203654_s_at) expression, normalized (6 h): 0.62 | fodrin-α (208611_s_at) expression, normalized (6 h): 0.56 | fodrin-α (215235_s_at) expression, normalized (6 h): 0.75 | golgin-67 (208797_s_at) expression, normalized (6 h): 0.92 | golgin-67 (208798_x_at) expression, normalized (6 h): 0.32 | golgin-67 (210425_x_at) expression, normalized (6 h): 0.19 | golgin-67 (213650_at) expression, normalized (6 h): 0.69 | scleroderma autoantigen 1, 75 kDa (213226_at) expression, normalized (6 h): 0.43 | spectrin-β non-erythrocyctic 1 (212071_s_at) expression, normalized (6 h): 0.95 | thyroid autoantigen 70 kDa (Ku antigen) (200792_at) expression, normalized (6 h): 1.13 | ANAP12 expression (6 h, vs time zero): 0.4 fold | ANXA11 expression (6 h, vs time zero): 2.141 fold | CALR expression (6 h, vs time zero): 1.482 fold | CBARA1 expression (6 h, vs time zero): 0.498 fold | CENPA expression (6 h, vs time zero): 0.672 fold | CENPB expression (6 h, vs time zero): 0.498 fold | CENPC1 expression (6 h, vs time zero): 0.869 fold | CHD4 expression (6 h, vs time zero): 0.916 fold | COL17A1 expression (6 h, vs time zero): 1.043 fold | CTDSP1 expression (6 h, vs time zero): 1.25 fold | CTDSP2 expression (6 h, vs time zero): 0.92 fold | CTDSPL expression (6 h, vs time zero): 2.42 fold | DLAT expression (6 h, vs time zero): 1.031 fold | EPPK1 expression (6 h, vs time zero): 1.318 fold | FBL expression (6 h, vs time zero): 1.09 fold | FLJ31657 expression (6 h, vs time zero): 0.435 fold | FLNB (Filamin B, β) expression (6 h, vs time zero): 0.751 fold | FLNB (Filamin B, γ) expression (6 h, vs time zero): 0.875 fold | G22P1 (Thyroid autoantigen, 70 kDa, Ku antigen) expression (6 h, vs time zero): 1.127 fold | GMEB2 expression (6 h, vs time zero): 0.626 fold | GOLGA1 expression (6 h, vs time zero): 0.68 fold | GOLGA2 expression (6 h, vs time zero): 0.769 fold | GOLGA3 expression (6 h, vs time zero): 0.547 fold | GOLGA4 expression (6 h, vs time zero): 0.353 fold | GOLGA5 expression (6 h, vs time zero): 0.731 fold | GOLGB1 expression (6 h, vs time zero): 0.56 fold | HARS expression (6 h, vs time zero): 0.88 fold | HARSL expression (6 h, vs time zero): 0.88 fold | HSA6591 expression (6 h, vs time zero): 0.532 fold | HUMAUANTIG expression (6 h, vs time zero): 0.444 fold | IMP-2 expression (6 h, vs time zero): 0.635 fold | LAD1 expression (6 h, vs time zero): 0.954 fold | LMO4 expression (repeat 1) (6 h, vs time zero): 0.708 fold | LMO4 expression (repeat 2) (6 h, vs time zero): 1.133 fold | MGC5560 expression (repeat 1) (6 h, vs time zero): 1.646 fold | MGC5560 expression (repeat 2) (6 h, vs time zero): 2.605 fold | NS (Nucleostemin) expression (6 h, vs time zero): 0.519 fold | PDHB expression (6 h, vs time zero): 0.745 fold | PDX1 expression (6 h, vs time zero): 0.646 fold | PMSCL1, 75 kDa expression (6 h, vs time zero): 0.431 fold | PMSCL2 expression (6 h, vs time zero): 1.058 fold | POLR1B expression (6 h, vs time zero): 0.98 fold | POLR1D expression (6 h, vs time zero): 1.04 fold | POLR2A expression (repeat 1) (6 h, vs time zero): 1.80 fold | POLR2A expression (repeat 2) (6 h, vs time zero): 0.44 fold | POLR2B expression (6 h, vs time zero): 0.59 fold | POLR2C expression (6 h, vs time zero): 1.53 fold | POLR2D expression (6 h, vs time zero): 1.04 fold | POLR2E expression (6 h, vs time zero): 0.87 fold | POLR2F expression (6 h, vs time zero): 1.17 fold | POLR2G expression (6 h, vs time zero): 0.74 fold | POLR2H expression (6 h, vs time zero): 1.02 fold | POLR3C expression (6 h, vs time zero): 0.45 fold | POLR3G expression (6 h, vs time zero): 1.05 fold | PSME3 expression (6 h, vs time zero): 1.128 fold | RALY expression (6 h, vs time zero): 1.496 fold | SART1 expression (6 h, vs time zero): 1.462 fold | SLC25A16 expression (6 h, vs time zero): 1.099 fold | SNRP70 expression (6 h, vs time zero): 2.28 fold | SNRPA expression (6 h, vs time zero): 1.35 fold | SNRPB2 expression (6 h, vs time zero): 0.56 fold | SNRPB expression (repeat 1) (6 h, vs time zero): 0.76 fold | SNRPB expression (repeat 2) (6 h, vs time zero): 0.67 fold | SNRPC expression (6 h, vs time zero): 1.28 fold | SNRPD1 expression (repeat 1) (6 h, vs time zero): 0.658 fold | SNRPD1 expression (repeat 2) (6 h, vs time zero): 0.612 fold | SOX13 expression (6 h, vs time zero): 1.24 fold | SP100 expression (repeat 1) (6 h, vs time zero): 0.59 fold | SP100 expression (repeat 2) (6 h, vs time zero): 0.686 fold | SP110 expression (repeat 1) (6 h, vs time zero): 1.205 fold | SP110 expression (repeat 2) (6 h, vs time zero): 0.997 fold | SP110 expression (repeat 3) (6 h, vs time zero): 0.7 fold | SPTAN1 (α-fodrin) expression (repeat 1) (6 h, vs time zero): 0.56 fold | SPTAN1 (α-fodrin) expression (repeat 2) (6 h, vs time zero): 0.75 fold | SPTBN expression (6 h, vs time zero): 0.95 fold | SSA2 (autoantigen SS-A/Ro) expression (repeat 2) (6 h, vs time zero): 0.687 fold | SSA2 expression (repeat 1) (6 h, vs time zero): 0.739 fold | SSA2 expression (repeat 3) (6 h, vs time zero): 0.571 fold | SSA2 expression (repeat 4) (6 h, vs time zero): 0.85 fold | SSB (autoantigen La) expression (repeat 1) (6 h, vs time zero): 0.57 fold | SSB (autoantigen La) expression (repeat 2) (6 h, vs time zero): 0.427 fold | SSNA1 expression (6 h, vs time zero): 1.608 fold | SSSCA1 expression (6 h, vs time zero): 1.005 fold | STRN3 expression (6 h, vs time zero): 0.528 fold | TOP1 expression (repeat 1) (6 h, vs time zero): 0.84 fold | TOP1 expression (repeat 2) (6 h, vs time zero): 0.33 fold | UBTF expression (6 h, vs time zero): 0.501 fold | XRCC5 (Ku autoantigen, 80 kDa) expression (repeat 1) (6 h, vs time zero): 0.977 fold | XRCC5 (Ku autoantigen, 80 kDa) expression (repeat 2) (6 h, vs time zero): 0.958 fold | dJ963E22.1 expression (6 h, vs time zero): 0.723 fold | α-NAC expression (6 h, vs time zero): 0.0443 fold | 60 kDa, SS-A/Ro (210438_x_at) expression, normalized (24 h): 0.88 | 60 kDa, SS-A/Ro (212852_s_at) expression, normalized (24 h): 0.94
